# Assay results: patent US20090227503A1, “PARATHYROID HORMONE TREATMENT FOR ENHANCED ALLOGRAFT AND TISSUE-ENGINEERED RECONSTRUCTION OF BONE DEFECTS” (UNIVERSITY OF ROCHESTER, priority 2008, published 2009)
# What was measured:
# Format in all cases: in vivo, mice
# [1] = system: grafted femurs; test: Histology of grafted femurs (Example 4)
# Description: A second cohort of 16 animals underwent the same surgery with sacrifice of 8 animals at 4 weeks and 8 animals at 6 weeks post-surgery to evaluate the degree of vascularization of the graft and callus region using vascular profusion as described previously (Duvall 2004). Half of the animals were treated with PTH, and the other half with saline. After micro-CT imaging for vascular analysis, specimens were processed for histology. Mid-sagittal sections were stained with alcian blue, hematoxylin, eosin and orange G. Micro-CT images were manually resliced using NIH ImageJ software in the same plane as the histology sections to compare the imaging modalities (data not shown).
# [2] = system: contralateral intact femurs; test: Torsion testing of contralateral intact femurs (Example 4)
# Description: Four-mm long bone allografts were harvested from donor mice, and were processed and implanted into intecalary defects 195 in the femur of other mice and secured in place using a stainless steel intramedullary pin 190, as shown in FIG. 13. One week after surgery, daily injections of 40 μg/kg hrPTH (1-34) (Lilly, Inc., Indianapolis, Ind.) were initiated in half of the mice, while the others received injections of saline control. Weekly x-rays were taken to monitor progression (Faxitron X-Ray LLC, Wheeling, Ill.).
# One cohort of the study groups used 14 mice from each treatment (PTH and control) for imaging and mechanical material testing and were sacrificed 6 weeks after surgery. Each femur was harvested by disarticulating the hip and knee and removing the intramedullary stainless-steel pin. Specimens were moistened with saline and frozen at −20° C. until thawed for micro-CT imaging and torsion testing. Specimens were scanned at […] isotropic resolution using the Scanco VivaCT 40 (Scanco Medical AG, Bassersdorf, Switzerland). From these 3D images, the graft and callus bone volumes (BVGraft, BVCallus) were measured by manual segmentation, followed by standardized thresholding at a grayscale corresponding to 750 mgHA/cm^3. The cross-sectional polar moment of inertias (PMI) were computed for each slice throughout the grafted region and the maximum, minimum and average PMI (PMIMax, PMIMin, PMIAve) were investigated to determine their contribution to the biomechanics of the grafted femurs.
# The Union Ratio was also calculated. The Union Ratio measures the graft surface area upon which mineralized callus has formed. If the voxels adjacent to the graft surface are boney callus, the area of that region of the graft is measured and normalized to the total graft surface area. Imaging data (not shown) indicated the bare surface of the graft in blue, with regions of union to the callus depicted as red. Each half (proximal and distal) of the graft was evaluated separately and the lesser ratio of union area to total graft surface area was given as the Union Ratio for that specimen. Callus formation that bridged from host-to-host over the graft was determined by evaluating serial axial cross sections from micro-CT images and given a binary result. These samples were then mechanically tested in torsion. Yield torque (TYield), ultimate torque (TUlt), torsional rigidity (TR), toughness (or work to failure) and the twist at ultimate torque were determined for each specimen. Finally, the mode of failure for each specimen was determined using an x-ray image analysis (not shown).
# [3] = system: grafted femurs; test: Mouse femoral allograft, micro-CT of grafted femurs (Example 4)
# Description: Four-mm long bone allografts were harvested from donor mice, and were processed and implanted into […] defects 195 in the femur of other mice and secured in place using a stainless steel intramedullary pin 190, as shown in FIG. 13. One week after surgery, daily injections of 40 μg/kg hrPTH (1-34) (Lilly, Inc., Indianapolis, Ind.) were initiated in half of the mice, while the others received injections of saline control. Weekly x-rays were taken to monitor progression (Faxitron X-Ray LLC, Wheeling, Ill.). One cohort of the study groups used 14 mice from each treatment (PTH and control) for imaging and mechanical material testing and were sacrificed 6 weeks after surgery. Each femur was harvested by disarticulating the hip and knee and removing the intramedullary stainless-steel pin. Specimens were moistened with saline and frozen at -20° C. until thawed for micro-CT imaging and torsion testing. Specimens were scanned at […] isotropic resolution using the Scanco VivaCT 40 (Scanco Medical AG, Bassersdorf, Switzerland). From these 3D images, the graft and callus bone volumes (BVGraft, BVCallus) were measured by manual segmentation, followed by standardized thresholding at a grayscale corresponding to 750 mgHA/cm^3. The cross-sectional polar moment of […]) were computed for each slice throughout the grafted region and the maximum, minimum and average […]) were investigated to determine their contribution to the biomechanics of the grafted femurs. The Union Ratio was also calculated. The Union Ratio measures the graft surface area upon which mineralized callus has formed. If the voxels adjacent to the graft surface are boney callus, the area of that region of the graft is measured and normalized to the total graft surface area. Imaging data (not shown) indicated the bare surface of the graft in blue, with regions of union to the callus depicted as red. Each half (proximal and distal) of the graft was evaluated separately and the lesser ratio of union area to total graft surface area was given as the Union Ratio for that specimen. Callus formation that bridged from host-to-host over the graft was determined by evaluating serial axial cross sections from micro-CT images and given a binary result. These samples were then mechanically tested in torsion. Yield torque (TYield), ultimate torque (TUlt), torsional rigidity (TR), toughness (or work to failure) and the twist at ultimate torque were determined for each specimen. Finally, the mode of failure for each specimen was determined using an x-ray image analysis (not shown). Bone volume quantification was performed from micro-CT imaging. Quantification of micro-CT results for a control and PTH treated (FIGS. 16E-H) specimen was performed. Cross sectional polar moment of inertia, graft were determined. Callus and intramedullary callus bone volumes were quantified for each specimen in a region of interest that extended from the proximal axial slice containing bone graft through the distal slice. These regions were manually segmented and quantified for bone volume, bone mineral density and bone mineral content at a threshold corresponding to 750 mgHA/cm^3. The total depth of penetration of callus into the intramedullary cavity from both ends was also measured. The trabecular-like region within the shell of the exterior callus was segmented for trabecular analysis to quantify BVF, Tb.No., Tb.Th., and Tb.Sp.
# [4] = 40 μg/kg hrPTH (1-34) daily from week 1, 6 weeks after surgery, mean, n = 14
# [5] = vs saline, 6 weeks after surgery
smiles,measurement,setting,value
"CC[C@H](C)[C@H](NC(=O)[C@H](CCC(=O)O)NC(=O)[C@H](CO)NC(=O)[C@@H](NC(=O)[C@@H](N)CO)C(C)C)C(=O)N[C@@H](CCC(N)=O)C(=O)N[C@@H](CC(C)C)C(=O)N[C@@H](CCSC)C(=O)N[C@@H](Cc1cnc[nH]1)C(=O)N[C@@H](CC(N)=O)C(=O)N[C@@H](CC(C)C)C(=O)NCC(=O)N[C@@H](CCCCN)C(=O)N[C@@H](Cc1cnc[nH]1)C(=O)N[C@@H](CC(C)C)C(=O)N[C@@H](CC(N)=O)C(=O)N[C@@H](CO)C(=O)N[C@@H](CCSC)C(=O)N[C@@H](CCC(=O)O)C(=O)N[C@@H](CCCN=C(N)N)C(=O)N[C@H](C(=O)N[C@@H](CCC(=O)O)C(=O)N[C@@H](Cc1c[nH]c2ccccc12)C(=O)N[C@@H](CC(C)C)C(=O)N[C@@H](CCCN=C(N)N)C(=O)N[C@@H](CCCCN)C(=O)N[C@@H](CCCCN)C(=O)N[C@@H](CC(C)C)C(=O)N[C@@H](CCC(N)=O)C(=O)N[C@@H](CC(=O)O)C(=O)N[C@H](C(=O)N[C@@H](Cc1cnc[nH]1)C(=O)N[C@@H](CC(N)=O)C(=O)N[C@@H](Cc1ccccc1)C(=O)O)C(C)C)C(C)C [PTH, PTH (1-34)]",osteoclastic graft resorption,[1]; PTH treatment for 6 weeks,did not stimulate osteoclastic graft resorption
same,cartilage formation at the site of bone injury,[1]; persisted through 4 weeks after surgery,Cartilage formation was increased
same,torsional mechanics of intact contralateral femurs,[2]; 6 weeks of PTH treatment,did not show a significant increase in torsional mechanics
same,TR,"[2]; PTH Contra, 6 weeks, mean",1284 N*mm^2/Rad
same,Tult,"[2]; PTH Contra, 6 weeks, mean",22.6 N*mm
same,Twist at Tult,"[2]; PTH Contra, 6 weeks, mean",0.029 Rad/mm
same,Tyield,"[2]; PTH Contra, 6 weeks, mean",15.1 N*mm
same,Work to TUlt,"[2]; PTH Contra, 6 weeks, mean",0.401 Nmm*Rad/mm
same,Work to TYield,"[2]; PTH Contra, 6 weeks, mean",0.151 Nmm*Rad/mm
same,BMCCallus,[3]; [4],2.7 mgHA
same,BMDCallus,[3]; [4],667 mgHA/cc
same,BVCallus,[3]; [4],1.04 mm^3/mm
same,BVGraft,[3]; [4],0.82 mm^3/mm
same,BVIntramed,[3]; [4],0.2 mm^3/mm
same,Callus Tb. N.,[3]; [4],13.2
same,Callus Tb. Sp.,[3]; [4],0.065
same,Callus Tb. Th.,[3]; [4],0.149
same,Callus trabecular BVF,[3]; [4],0.576
same,Intramed Penetration Depth,[3]; [4],2.22 mm
same,PMIAve,[3]; [4],1.16 mm^4
same,PMIMax,[3]; [4],2.17 mm^4
same,PMIMin,[3]; [4],0.51 mm^4
same,Union Ratio,[3]; [4],0.277
same,ratio of callus BMCPTH:BMCSaline,[3]; 6 weeks,1.67
same,maximum outer radius of the callus,"[3]; 6 weeks, saline 1.8±0.2 mm",1.7±0.3 mm
same,specimens with bridging over the graft from host-to-host,"[3]; 6 weeks, saline 6 of 14",8 of 14
same,Union Ratio greater in PTH treated animals,"[3]; across all samples, vs saline",2.8 fold
same,Intramedullary penetration depth,"[3]; grafts from PTH-treated animals, saline 1.7±0.6 mm",2.2±0.7 mm
same,Union Ratio of the single PTH-treated specimen of FIG. 15H,"[3]; one specimen, saline control specimen 0.02",0.31
same,"bone mineral density of the callus, less dense by","[3]; vs saline, 6 weeks",14%
same,"bone volume fraction within the callus, greater by","[3]; vs saline, 6 weeks",52%
same,graft bone volume (graft resorption),"[3]; vs saline, 6 weeks",not different between treatment groups
same,"net callus total mineral content, greater by","[3]; vs saline, 6 weeks",67%
same,increase in BVCallus,[3]; [5],93%
same,increase in BVIntramed,[3]; [5],217%
same,increase in PMIAve,[3]; [5],38%
same,increase in PMIMax,[3]; [5],26%
same,"Union Ratio, greater by","[3]; vs saline, 6 weeks, p<0.01",76%
same,"Intramedullary penetration depth, greater by","[3]; vs saline, p=0.12",28%
